Measured values from patent publication US11324680B2, “Topical compositions” (priority 2017, dated 2022).

Tested on: Propionibacterium acnes
Assay: Antimicrobial efficacy in analogy to challenge test NF EN ISO11930, protection against acne
Type: cell-based
Settings: 24 h; for Log reduction: Propionibacterium acnes; for Propionibacterium acnes colony count: 22° C., initial contamination 310000 cfu/ml
Method: The antimicrobial efficacy is assessed in analogy to the regulatory challenge test method (NF EN ISO11930). Thus, solutions of the respective active(s) in ethanol are prepared and further dissolved in physiological serum with 0.85 wt.-% NaCl in the concentrations as outlined in table 1 under sterile conditions. The samples were solubilized in physiological serum supplemented with 1 wt.-% ethanol. A control was prepared under sterile condition based on a serum with 0.85 wt.-% NaCl and 1 wt.-% ethanol (C1). […] The wells are contaminated resulting in the initial contamination as outlined in table 1. After the contamination, each well was thoroughly mixed to ensure a homogeneous distribution of bacteria. Then each plate was incubated at 22° C. for 24 h. The counting of the (remaining) population is carried out 24 h after contamination.

| SMILES | Log reduction (single active at 0.2 wt.-%) | Log reduction (single active at 0.3 wt.-%) | Propionibacterium acnes colony count (single active at 0.2 wt.-%) | Propionibacterium acnes colony count (single active at 0.3 wt.-%) | Log reduction (single active at 0.1 wt.-%) | Propionibacterium acnes colony count (single active at 0.1 wt.-%) |
| --- | --- | --- | --- | --- | --- | --- |
| CCCCCCCC(=O)OCC(O)CO (centres unmarked) [glyceryl caprylate, Glyceryl caprylate] | 3 | 4.5 | 260 cfu/ml | 10 cfu/ml | – | – |
| O=C(CO)[C@H](O)CO (racemic) [erythrulose] | – | 3.5 | – | 100 cfu/ml | 2 | 3300 cfu/ml |
